Measured values published in patent publication US20050256177A1, “Phenyl derivatives for the treatment of abnormal cell growth” (Pfizer Inc, priority 2004, published 2005).

Experiments:
[1] = Metabolite profiling after single oral dose of [14C]-labelled parent drug in healthy male subjects; type: in vivo, human; conditions: for presence in HPLC-radiochromatogram of human fecal metabolites: human feces; for presence in HPLC-radiochromatogram of human fecal metabolites / presence in HPLC-radiochromatogram of circulating metabolites / presence in HPLC-radiochromatogram of human urinary metabolites: single 100 mg oral dose of labelled compound; for presence in HPLC-radiochromatogram of circulating metabolites: human plasma; for presence in HPLC-radiochromatogram of human urinary metabolites / matrices in which the metabolite was detected (humans): human urine; for matrices in which the metabolite was detected (humans): feces, plasma
Procedure: Four normal healthy male subjects between the ages of 26 and 55 years participated in the study. The subjects entered the Clinical Research Facility 12 hours before dosing, and remained there for up to 384 hours after dosing under continuous medical observation. All subjects had fasted at least 8 hours and were given a single 100 mg oral dose of the labeled compound (˜93 μCi/subject). The dose was administered in an open fashion in the morning. A standard meal was provided 4 hours later. The dosing formulation was prepared by dissolving the radiolabeled material in citrate buffered vehicle that was prepared by adding 100 ml of water to a 4 oz. amber bottle containing a dry powder blend of citric acid and sodium citrate. Total volume of dosage given was 240 ml.
After dosing, urine samples were collected for up to 16 days between the following time points: 0-12, 12-24, 24-48, 48-72, 72-96, 96-120, 120-144, 144-168, 168-192, 192-216, 216-240, 240-264, 264-288, 288-312, 312-336, 336-360 and 360-384 hours post-dose (i.e., first sample collected between 0-12 hours, second sample collected between 12-24 hours, and so on). The total volume of the urine samples was recorded after each collection. Feces were collected as passed, from time of dosing until 384 hours after dosing.
Blood sufficient to provided a minimum of 7 ml of plasma was collected, in heparinized tubes, from each subject at 0 (just before dosing), 1, 2, 4, 6, 8, 10, 12, 16, 24, 48, 72, 96, 120, 144 and 168 hours after the dose. Within 1 hour after collection, the blood samples were centrifuged in a refrigerated centrifuge and plasma was separated from whole blood. Samples collected over the first 168 hours post-dose were divided into two aliquots (3 ml and 4 ml). The 3 ml aliquots were used for the quantitation of unchanged 3-(4-bromo-2,6-difluoro-benzyloxy)-5-[3-(4-pyrrolidin-1-yl-butyl)-ureido]-isothiazole-4-carboxylic acid amide The other 4 ml aliquots were used for the analysis of total radioactivity. For metabolite identification, blood sufficient to yield 20 ml of plasma was collected at 4, 6, 8, 12, 16 and 24 hours after the dose. All samples were labeled, immediately frozen, and stored at −20° C. until analysis.
Radioactivity in urine, feces, and plasma was measured by liquid scintillation counting. All samples were counted in a Wallac 1409 liquid scintillation counter with quench correction determined by monitoring the Compton edge of the external gamma source. Radioactivity less than twice the background value of the pre-dose matrix was considered to be below the limit of quantification.
Urine samples obtained between the following time points were pooled for each subject: 0-12, 12-24, 24-48, 48-72 hours after the dose (i.e., first sample collected between 0-12 hours, second sample collected between 12-24 hours, and so on). The pooled samples (˜100 ml) were lyophilized overnight. The residues were extracted with methanol twice (10 and 5 ml). The supernatants were combined and 0.2 ml aliquots were counted in a liquid scintillation counter to determine the extraction efficiency. The supernatants were evaporated to dryness in a Turbo Vap LV evaporator. The residues were reconstituted with 1 ml of MeOH. Aliquots (50 μl) were injected onto the HPLC column without further purification.
Fecal homogenates were pooled (up to 0-264 hours) for each subject. The pooled samples (˜10 g) were suspended in 25 ml of acetonitrile. The suspensions were sonicated for 10 min, then stirred on a magnetic stirrer for 1 hour and centrifuged. Supernatants were separated and the residues further extracted with 25 ml of acetonitrile. The two supernatants were combined and 1 ml aliquots were counted in a scintillation counter to determine the extraction efficiency. The organic solvents were evaporated to dryness in a Turbo Vap LV evaporator and the residues were reconstituted in 1 ml of MeOH:water (50:50). Aliquots (100 μl) of concentrated fecal extracts were injected onto the HPLC column. […]

[2] = Metabolite detection in beagle dogs, methods similar to those used for human samples; type: in vivo; conditions: dog urine, feces, bile, plasma
[3] = Metabolite detection in Sprague-Dawley rats, methods similar to those used for human samples; type: in vivo; conditions: rat urine, feces, bile, plasma

| Compound | presence in HPLC-radiochromatogram of human fecal metabolites [1] | presence in HPLC-radiochromatogram of circulating metabolites [1] | presence in HPLC-radiochromatogram of human urinary metabolites [1] | matrices in which the metabolite was detected (humans) [1] | matrices in which the metabolite was detected (beagle dogs) [2] | matrices in which the metabolite was detected (rats) [3] |
| --- | --- | --- | --- | --- | --- | --- |
| NC(=O)c1c(OCc2c(F)cc(Br)cc2F)nsc1NC(=O)NCCCCN1CCCC1 [3-(4-Bromo-2,6-difluoro-benzyloxy)-5-[3-(4-pyrrolidin-1-yl-butyl)-ureido]-isothiazole-4-carboxylic acid amide, reference compound] | presence | presence | presence | – | – | – |
| NC(=O)c1c(OCc2c(F)cc(Br)cc2F)nsc1NC(=O)NCCCCNCCCC(=O)O [Metabolite M1, 4-(4-{3-[3-(4-bromo-2,6-difluoro-benzyloxy)-4-carbamoyl-isothiazol-5-yl]-ureido}-butylamino)-butyric acid] | presence | – | presence | detected in urine and feces of humans | – | – |
| NC(=O)c1c(OCc2c(F)cc(Br)cc2F)nsc1NC(=O)NCCCC[N+]1([O-])CCCC1 [Metabolite M2, 3-(4-bromo-2,6-difluoro-benzyloxy)-5-[3-(4-pyrrolidin-1-yl-N-oxide-butyl)-ureido]-isothiazole-4-carboxylic acid amide] | – | – | presence | detected in urine of humans | in urine, feces, bile and plasma of Beagle dogs | – |
| O=C(O)c1c(F)cc(Br)cc1F [Metabolite M4, 4-bromo-2,6-difluorobenzoic acid] | – | presence | presence | detected in urine and plasma | – | found in rat urine |
| CC(=O)NC(CSCc1c(F)cc(Br)cc1F)C(=O)O (stereo not shown) [Metabolite M5, 2-Acetylamino-3-(4-bromo-2,6-difluoro-benzylsulfanyl)-propionic acid] | – | – | presence | detected in urine of humans | detected in urine of humans and beagle dogs | – |
| NC(=O)c1c(OCc2c(F)cc(Br)cc2F)nsc1NC(=O)NCCCCN1CC=CC1=O [Metabolite M8, 3-(4-bromo-2,6-difluoro-benzyloxy)-5-{3-[4-(2-oxo-2,5-dihyro-pyrrol-1-yl)-butyl]-ureido}-isothiazole-4-carboxylic acid amide] | – | – | – | – | detected in feces, bile and plasma of beagle dogs | detected in feces, bile and plasma of beagle dogs and Sprague-Dawley Rats |
| NC(=O)c1c(OCc2c(F)cc(Br)cc2F)nsc1NC(=O)NCCCC(=O)O [Metabolite M9, 4-{3-[3-(4-bromo-2,6-difluorobenzyloxy)-4-carbamoyl-isothiazol-5-yl]-ureido}-butyric acid] | presence | presence | – | detected in feces and plasma | found in dog feces | – |
